Read-outs that look alike come from different tables or passages of the source.
Legend:
[1] = tested on: monocotyledonous grass and liliaceae species (Pasture Blend 2, Allium cepa); assay: Trial 41: greenhouse foliar spray trial, monocots, visual toxicity scoring; format: in vivo, grasses of pasture seed blend; settings: 2.0M; Plants P-2 and 2
Excerpt: (§1) FIG. 5 depicts the average toxicity scores for the four plants tested in Trial 41, which tested an embodiment of an herbicide composition and method of using the same. The plants were numbered 22, 2, 3, and 10, corresponding to mixed monocotyledonous and dicotyledonous Pasture Blend 2 and Allium cepa (Onion “Torpedo Red”), and dicotyledonous Antirrhinum majus (Snapdragon) and Cineraria meritima (Dusty Miller, “Silver Dust” (Refer to Tables 4A and 4B for plant species identification). Both of the samples S-1 and S-2 were solutions of 2.0 Molar of ammonium sulfate having a pH of 5.5. (Refer to Tables 6A and 6B for trial solutions, details and results). Results of Trial 41: For broadleaf (dicotyledonous) species of Sample S-1 at 2.0 Molar concentration, excellent phytotoxic effects from 4.0 to 5.0 (“severe-to-fatal”) resulted from Day 3 through trial conclusion at Day 23. For monocotyledonous grass and liliaceae species of Sample S-2 at 2.0 Molar concentration, an initial moderate effect of 3.0 had decreased to 2.3 (“slight”). […] Dicots included in the Pasture 2 samples of S-1 and S-2 were all dead by Day 7. However, separate toxicity results for the monocots and dicots present in the Pasture Blend 2 mix were not recorded, and are not presented in FIG. 5.
(§2) In Trial 41, the herbicide comprised Ammonium sulfate […]; molarity 2.0; unadjusted pH approx. 5.5. […]

[2] = tested on: broadleaf (dicotyledonous) species (Antirrhinum majus, Cineraria meritima); assay: Trial 41: greenhouse foliar spray trial, dicots, visual toxicity scoring; format: in vivo; settings: solutions “B”, 2.0M; Plant 3 and 10; by test conclusion at Day 23
Excerpt: as §1, §2

weeds growing in soil = format: in vivo
[3] = tested on: Pasture Blend 1, Calendula officinalis (Common marigold), Cineraria meritima (Dusty miller) (plants 21, 7, 10); assay: Trial 13: greenhouse foliar spray trial, visual toxicity scoring; format: in vivo; settings: Day 11
Excerpt: (§3) The majority of greenhouse trials conducted to date have been of one basic design: • 1. Samples of different species of flowering plant and grass are exposed to different formulations of the herbicide in accordance with some embodiments, prepared in a range of concentrations, in combination with potentially suitable adjuvants, and applied as an aquatic spray. Experimental plants are purchased either from a local nursery, grown from ornamental and weed seed packs, or grown from seeds of a custom blend prepared specifically for this project and listed in Table 4B. The experimental variable in a typical test is the molar mass concentration of the nutrient salt being examined. Other factors including pH, nitrogen source, and the amount and composition of surfactant or penetrant are constants within a trial except when one of these factors is itself the variable of interest in the experiment. Experiments are controlled unless irrelevant for a particular test. • 2. […] Plants are sprayed with the experimental formulation, always in late afternoon (greenhouse tests), or in early morning (field tests), are observed over as many as several weeks, and their visible state of decline scored by the same examiner on a 9 points system relying on visual effects of toxicity. […]

[4] = tested on: broadleaf (dicot) samples: Brassica oleracea (Kale), Dichondra repens, Fragraia x ananassa (Strawberry); assay: Trial 46: greenhouse foliar spray trial, broadleaf (dicot) samples, visual toxicity scoring; format: in vivo, Fragaria x ananassa
Excerpt: (§4) FIG. 9 is a graph showing the average toxicity scores for the […] plants tested in Trial 46, which tested an embodiment of an herbicide composition and method of using the same. The plants were numbered P2, 5, 11A, and 13, corresponding to Pasture Blend 2, Brassica oleracea (Kale), Dichondra repens, Fragraia x ananassa Strawberry (Refer to Tables 4A and 4B for plant species identification). Solutions S-1 and S-2 correspond to solutions of Monopotassium phosphate (KH2PO4) at concentrations of 2.0 molarity (Solution 1) and 1.5 molarity (Solution 2). […] The adjuvants in Trial 46 were […] silicone surfactant and methylated seed oil (MSO).
(§5) The majority of greenhouse trials conducted to date have been of one basic design: • 1. Samples of different species of flowering plant and grass are exposed to different formulations of the herbicide in accordance with some embodiments, prepared in a range of concentrations, in combination with potentially suitable adjuvants, and applied as an aquatic spray. […] Plants are sprayed with the experimental formulation, always in late afternoon (greenhouse tests), or in early morning (field tests), are observed over as many as several weeks, and their visible state of decline scored by the same examiner on a 9 points system relying on visual effects of toxicity. […]

[5] = tested on: the three grasses in P-2 (Pasture Blend 2); assay: Trial 46: greenhouse foliar spray trial, grasses, visual toxicity scoring; format: in vivo, Lolium perenne, Dactylis glomerata, Festuca arundinacea; settings: Day 8 through Day 18
Excerpt: as §4, §5

plants = assay: Example 13: micronutrient salt composition applied to plants as in Example 1, toxicity scoring; format: in vivo; settings: after a period of 3-30 days
Experimental: Toxicity scoring is performed as described in Table 7.

[6] = tested on: Pasture Blend 2, Allium cepa (Onion), Cineraria maritima (Dusty miller), Antirrhinum majus (Snapdragon); assay: Trial 44: greenhouse foliar spray trial, visual toxicity scoring; format: in vivo
Excerpt: The majority of greenhouse trials conducted to date have been of one basic design: • 1. Samples of different species of flowering plant and grass are exposed to different formulations of the herbicide in accordance with some embodiments, prepared in a range of concentrations, in combination with potentially suitable adjuvants, and applied as an aquatic spray. Experimental plants are purchased either from a local nursery, grown from ornamental and weed seed packs, or grown from seeds of a custom blend prepared specifically for this project and listed in Table 4B. The experimental variable in a typical test is the molar mass concentration of the nutrient salt being examined. Other factors including pH, nitrogen source, and the amount and composition of surfactant or penetrant are constants within a trial except when one of these factors is itself the variable of interest in the experiment. Experiments are controlled unless irrelevant for a particular test. • 2. Standard techniques to reduce experimental error are employed including use of controls; standard spray application pressures; standardized growing conditions, growing medium, containers, and source irrigation water; and preparation and shipping of samples for laboratory analysis according to required standard laboratory protocols. • 3. Plants are sprayed with the experimental formulation, always in late afternoon (greenhouse tests), or in early morning (field tests), are observed over as many as several weeks, and their visible state of decline scored by the same examiner on a 9 points system relying on visual effects of toxicity. (Table 5.)
Scores of half-value are also used: 0, 0.5, 1.0, 1.5, 2.0, 2.5, etc. • 4. The estimated successful herbicidal effectiveness of a formulation was determined from a combination of averaged and cumulative scores of 4.0 to 5.0 observed approximately 14 days or longer after application: “All leaves and flowers if present desiccated, browned, wilted, and stems or blades lodged; no green tissue visible; no regrowth from roots visible.”
S-1 corresponds to the highest concentration of active nutrient tested, S-3 corresponds to the lowest concentration of nutrient tested and S-2 represents an intermediate level.

[7] = tested on: all broadleaf species in the trial; assay: Trial 64: greenhouse foliar spray trial, broadleaf species; format: in vivo; settings: 0.5 molarity; Days 12 through 34
Excerpt: as §3

[8] = tested on: the grass species in the trial; assay: Trial 64: greenhouse foliar spray trial, grass species; format: in vivo, grasses of pasture seed blend; settings: 0.5 molarity; Days 12 through 34
Excerpt: as §3

N.N.O=S(=O)(O)O [Ammonium sulfate]
responsiveness (in words) [1]: considerably less responsive | toxicity level (in words) [2]: severe-to-fatal | herbicidal effects on the weed plants (weeds growing in soil; aqueous solution with citric acid and a surfactant, sprayed): has herbicidal effects

O=C([O-])CC(O)(CC(=O)[O-])C(=O)[O-].[K+].[K+].[K+] [K-citrate, potassium citrate]
average toxicity score ([3]; 1.0M): 4.0 | average toxicity score ([3]; […]): 4.3

O=P([O-])(O)O.[K+] [Mono-potassium phosphate]
phytotoxic effect (in words) ([4]; 1.0M solution (so in the source), Days 8 through 18): severe-to-fatal | phytotoxic effect (in words) ([4]; 2.0 molar test solution, Day 8 through Day 18, broadleaf samples (dicots)): Severe-to-fatal | phytotoxic effect (in words) ([5]; 1.5 molar test solution): minimal effect | phytotoxic effect (in words) ([5]; 2.0 molar test solution): minimal effect

O.O=S(=O)([O-])[O-].[Zn+2] [Zn sulfate monohydrate]
plant death (plants): plant death is observed

O=S(=O)([O-])[O-].[Zn+2] [ZnSO4, Zinc Sulfate]
average toxicity score ([6]; 1.0M, first of three values for “Days 521 through 32”): 4.3 | average toxicity score ([6]; 1.0M, second of three values for “Days 521 through 32”): 4.4 | average toxicity score ([6]; 1.0M, third of three values for “Days 521 through 32”): 4.2 | average toxicity score ([6]; 1.0 molar solution, Day 21 through Day 32): approximately 4.5 | average toxicity score ([6]; 2.0 molar solution, Day 9): 3.9

O=[N+]([O-])[O-].O=[N+]([O-])[O-].[Ca+2] [calcium nitrate]
herbicidal effects on the weed plants (weeds growing in soil; in vivo): has herbicidal effects

O.O.O.O.O=BOB1OB(OB=O)OB2OB([O-])OB([O-])OB(O1)O2.[Na+].[Na+] [disodium octaborate tetrahydrate]
phytotoxic control (in words) [7]: Excellent phytotoxic control | phytotoxic control (in words) [8]: Partial control

O=[N+]([O-])[O-].O=[N+]([O-])[O-].[Mg+2] [magnesium nitrate]
herbicidal effects on the weed plants (weeds growing in soil; in vivo): has herbicidal effects

From patent publication US12648565B2, “Post-emergence herbicide” (Belvedere Foliar LLC, priority 2017, dated 2026)
